Literature values, collected in article PMC13427755 (Nature Communications, 2026).
Like-named read-outs stand apart in the source and are kept apart here.

System: SP-D
Conditions: at 12 weeks, cited from earlier work

Structure (SMILES) | decrease in SP-D (CAPACITY study of pirfenidone) [%] | decrease in SP-D (INMARK study of nintedanib) [%]
Cc1ccc(=O)n(-c2ccccc2)c1 [pirfenidone] | 5 | –
COC(=O)c1ccc2c(c1)NC(=O)/C2=C(\Nc1ccc(N(C)C(=O)CN2CCN(C)CC2)cc1)c1ccccc1 [nintedanib] | – | 4
